Experimental data as given in the supplement of paper PMC11061612.

What was measured:
[1] = tested on: PC-3 (Prostate Carcinoma); experiment: combination Emax (second highest fraction inhibited in the dose matrix, 72 h); higher = more inhibition; extreme values may be limits of the assay
Method in brief: (§1)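 Bliss excess equals the observed combination effect minus the expected value EA + EB − EA·EB, where EA and EB are the effects of each agent alone. Combination Emax is the second-highest inhibition within the matrix. Inhibition was scaled from CellTiter-Glo 2.0 luminescence, with 0 set by vehicle wells and 1 by blank wells, after 72 hours of two-drug dosing of cells plated in 1536-well plates.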

[2] = tested on: MOG-G-CCM (Low Grade Glioma); experiment: Bliss excess, mean over the matrix (fraction); higher = more synergy
Method in brief: as §1

[3] = tested on: SK-GT-4 (Esophageal Adenocarcinoma); experiment: as above
Method in brief: as §1

RD (Rhabdomyosarcoma) = experiment: as above
Method in brief: as §1

SJSA-1 (Osteosarcoma) = experiment: as above
Method in brief: as §1

[4] = tested on: H9 (T-Cell Non-Hodgkin's Lymphoma); experiment: as above
Method in brief: as §1

[5] = tested on: NCI-H929 (Plasma Cell Myeloma); experiment: as above
Method in brief: as §1

[6] = tested on: HCC1187 (Breast Carcinoma); experiment: as above
Method in brief: as §1

[7] = tested on: CHSA8926 (Chondrosarcoma); experiment: as above
Method in brief: as §1

[8] = tested on: NCI-H661 (Non-Small Cell Lung Carcinoma); experiment: as above
Method in brief: as §1

[9] = tested on: JHH-4 (Hepatocellular Carcinoma); experiment: as above
Method in brief: as §1

[10] = tested on: SU-DHL-5 (B-Cell Non-Hodgkin's Lymphoma); experiment: as above
Method in brief: as §1

[11] = tested on: IM-95 (Gastric Carcinoma); experiment: as above
Method in brief: as §1

[12] = tested on: NCI-H520 (Squamous Cell Lung Carcinoma); experiment: as above
Method in brief: as §1

[13] = tested on: PC-3 (Prostate Carcinoma); experiment: as above
Method in brief: as §1

NCI-H2731 (Mesothelioma) = experiment: as above
Method in brief: as §1

[14] = tested on: T-T (Esophageal Squamous Cell Carcinoma); experiment: as above
Method in brief: as §1

[15] = tested on: KY821 (Acute Myeloid Leukemia); experiment: as above
Method in brief: as §1

[16] = tested on: NCI-H3122 (Lung Adenocarcinoma); experiment: as above
Method in brief: as §1

[17] = tested on: KU812 (Chronic Myelogenous Leukemia); experiment: as above
Method in brief: as §1

SMILES | combination Emax [1] | Bliss excess [2] | Bliss excess [3] | Bliss excess (RD (Rhabdomyosarcoma)) | Bliss excess (SJSA-1 (Osteosarcoma)) | Bliss excess [4] | Bliss excess [5] | Bliss excess [6] | Bliss excess [7] | Bliss excess [8] | Bliss excess [9] | Bliss excess [10] | Bliss excess [11] | Bliss excess [12] | Bliss excess [13] | Bliss excess (NCI-H2731 (Mesothelioma)) | Bliss excess [14] | Bliss excess [15] | Bliss excess [16] | Bliss excess [17]
CN(CCO)CC[C@H](CSc1ccccc1)Nc1ccc(S(=O)(=O)NC(=O)c2ccc(N3CCC([C@@H](O)c4ccccc4-c4ccc(Cl)cc4)CC3)cc2)cc1S(=O)(=O)C(F)(F)F [AZD4320] + C[C@@H](Nc1cc(F)cc(F)c1)c1cc(C(=O)N(C)C)cc2c(=O)cc(N3CCOCC3)oc12 [AZD8186] (first compound max 1 µM, 7x7, partner max 3 µM) | 0.437 | -0.018 | -0.0206 | 0.0328 | -0.0489 | 0.063 | -0.0036 | 0.0582 | 0.0889 | 0.0424 | 0.0282 | 0.0003 | 0.0117 | 0.0618 | 0.057 | 0.0288 | 0.054 | 0.0053 | 0.0005 | 0.0161
CN(CCO)CC[C@H](CSc1ccccc1)Nc1ccc(S(=O)(=O)NC(=O)c2ccc(N3CCC([C@@H](O)c4ccccc4-c4ccc(Cl)cc4)CC3)cc2)cc1S(=O)(=O)C(F)(F)F [AZD4320] + C=CCn1c(=O)c2cnc(Nc3ccc(N4CCN(C)CC4)cc3)nc2n1-c1cccc(C(C)(C)O)n1 [AZD1775] (first compound max 1 µM, partner max 1 µM) | 0.204 | 0.0069 | -0.0438 | 0.0669 | -0.0545 | 0.0178 | -0.0219 | -0.0064 | 0.102 | -0.0018 | -0.0041 | 0.0007 | -0.0023 | -0.0444 | -0.0525 | -0.0106 | 0.0409 | -0.0117 | -0.0108 | 0.0788
Cn1cnc2c(F)c(Nc3ccc(Br)cc3Cl)c(C(=O)NOCCO)cc21 [Selumetinib] + CC(C)n1c(=O)n(C)c2cnc3cc(F)c(-c4ccc(OCCCN5CCCCC5)nc4)cc3c21 [AZD1390] (first compound max 10 µM, 7x7, partner max 0.3 µM) | 0.0591 | -0.0476 | 0.0162 | -0.0405 | -0.042 | -0.0033 | 0.0105 | 0.0068 | -0.0477 | -0.0559 | -0.0444 | 0.0267 | -0.0078 | -0.0486 | -0.0688 | -0.0364 | -0.0162 | 0.0169 | 0.0111 | -0.0227
C[C@@H](c1ccc2nccn2c1)n1nnc2ncc(-c3cnn(C)c3)nc21 [Savolitinib] + Cc1c2c(nn1C)CSCc1cc(n(C)n1)CSc1cc(c3ccccc3c1)OCCCc1c(C(=O)O)n(C)c3c-2c(Cl)ccc13 [AZD5991] (first compound max 1 µM, 7x7, partner max 1 µM) | 0.121 | -0.0683 | -0.0519 | -0.0177 | -0.0714 | 0.0005 | 0.0063 | -0.0038 | 0.0233 | -0.0666 | -0.0082 | -0.0269 | -0.0166 | -0.0539 | -0.0402 | -0.0586 | -0.0291 | -0.0415 | -0.0562 | 0.0064
CN(CCO)CC[C@H](CSc1ccccc1)Nc1ccc(S(=O)(=O)NC(=O)c2ccc(N3CCC([C@@H](O)c4ccccc4-c4ccc(Cl)cc4)CC3)cc2)cc1S(=O)(=O)C(F)(F)F [AZD4320] + CN(C)CCCOc1ccc(-c2ccc3ncc4c(c3c2)n(C2CCOCC2)c(=O)n4C)cn1 [AZD0156] (first compound max 1 µM, 7x7, partner max 1 µM) | 0.241 | -0.0155 | -0.067 | -0.0172 | 0.0377 | -0.0151 | -0.0267 | 0.0062 | -0.0797 | -0.0232 | -0.016 | -0.066 | -0.0683 | -0.0185 | -0.0266 | -0.0485 | -0.0047 | 0.002 | -0.0486 | -0.0086
CC1(C)CCC(CN2CCN(c3ccc(C(=O)NS(=O)(=O)c4ccc(NCC5CCOCC5)c([N+](=O)[O-])c4)c(Oc4cnc5[nH]ccc5c4)c3)CC2)=C(c2ccc(Cl)cc2)C1 [Venetoclax] + COc1cc(Nc2ncc3c(n2)-c2ccc(Cl)cc2C(c2c(F)cccc2OC)=NC3)ccc1C(=O)O [Alisertib] (first compound max 1 µM, 7x7, partner max 10 µM) | 0.321 | 0.0552 | -0.107 | 0.0506 | -0.0583 | -0.0674 | 0.197 | -0.0999 | -0.025 | -0.0206 | -0.0328 | -0.003 | 0.005 | -0.0425 | -0.0536 | -0.0311 | 0.0325 | 0.0079 | -0.0278 | -0.0121
Cc1c2c(nn1C)CSCc1cc(n(C)n1)CSc1cc(c3ccccc3c1)OCCCc1c(C(=O)O)n(C)c3c-2c(Cl)ccc13 [AZD5991] + CC1(C)CCC(CN2CCN(c3ccc(C(=O)NS(=O)(=O)c4ccc(NCC5CCOCC5)c([N+](=O)[O-])c4)c(Oc4cnc5[nH]ccc5c4)c3)CC2)=C(c2ccc(Cl)cc2)C1 [Venetoclax] (first compound max 1 µM, 7x7, partner max 1 µM) | 0.171 | -0.0199 | -0.0914 | 0.0081 | -0.0941 | 0.0048 | -0.033 | 0.0026 | -0.031 | 0.052 | 0.0098 | -0.0379 | 0.0119 | -0.0019 | -0.0312 | -0.0519 | -0.0051 | 0.0331 | -0.0378 | 0.0353
Cc1cc2ncnn2cc1Nc1ncc2c(n1)n(C1CCOCC1)c(=O)n2C [AZD7648] + C[C@@H]1COCCN1C2=NC(=NC(=C2)C3(CC3)[S@](=N)(=O)C)C4=C5C=CNC5=NC=C4 [AZD6738] (first compound max 10 µM, 7x7, partner max 10 µM) | 0.402 | -0.062 | 0.0068 | 0.0425 | 0.0225 | -0.0034 | -0.0268 | 0.0005 | -0.0325 | 0.0522 | 0.013 | 0.0007 | 0.0163 | -0.0108 | -0.0161 | 0.055 | 0.0146 | 0.0008 | 0.038 | 0.0087
CC1(C)CCC(CN2CCN(c3ccc(C(=O)NS(=O)(=O)c4ccc(NCC5CCOCC5)c([N+](=O)[O-])c4)c(Oc4cnc5[nH]ccc5c4)c3)CC2)=C(c2ccc(Cl)cc2)C1 [Venetoclax] + C1CN(CCC1(C(=O)N[C@@H](CCO)C2=CC=C(C=C2)Cl)N)C3=NC=NC4=C3C=CN4 [Capivasertib] (first compound max 1 µM, 7x7, partner max 3 µM) | 0.365 | -0.0568 | -0.0728 | -0.0226 | -0.0509 | -0.02 | -0.0099 | -0.0227 | -0.0364 | -0.0218 | -0.054 | -0.0236 | -0.0067 | -0.0275 | -0.046 | -0.066 | 0.0155 | 0.0303 | -0.0592 | -0.046
CN(C)CCCOc1ccc(-c2ccc3ncc4c(c3c2)n(C2CCOCC2)c(=O)n4C)cn1 [AZD0156] + CCN(CCO)CCCOc1ccc2c(Nc3cc(CC(=O)Nc4cccc(F)c4)[nH]n3)ncnc2c1 [AZD2811] (first compound max 1 µM, 7x7, partner max 1 µM) | 0.16 | -0.0228 | -0.0603 | -0.0374 | -0.0348 | -0.124 | 0.0125 | -0.0596 | -0.0389 | -0.0304 | -0.0297 | -0.0542 | 0.0925 | 0.0012 | -0.0243 | -0.0279 | -0.0262 | 0.147 | -0.0048 | -0.0158
CC1(C)CCC(CN2CCN(c3ccc(C(=O)NS(=O)(=O)c4ccc(NCC5CCOCC5)c([N+](=O)[O-])c4)c(Oc4cnc5[nH]ccc5c4)c3)CC2)=C(c2ccc(Cl)cc2)C1 [Venetoclax] + Cc1cc2ncnn2cc1Nc1ncc2c(n1)n(C1CCOCC1)c(=O)n2C [AZD7648] (first compound max 1 µM, 7x7, partner max 10 µM) | 0.263 | -0.0528 | -0.093 | -0.0373 | -0.0404 | -0.0194 | 0.0418 | -0.0061 | -0.0023 | -0.0345 | -0.0059 | -0.0362 | -0.0192 | 0.0114 | -0.0245 | -0.0272 | 0.0109 | 0.056 | -0.0201 | -0.0174
Cn1cnc2c(F)c(Nc3ccc(Br)cc3Cl)c(C(=O)NOCCO)cc21 [Selumetinib] + CCN(CCO)CCCOc1ccc2c(Nc3cc(CC(=O)Nc4cccc(F)c4)[nH]n3)ncnc2c1 [AZD2811] (first compound max 10 µM, 7x7, partner max 1 µM) | 0.141 | -0.0745 | -0.0533 | -0.0016 | -0.0705 | -0.0129 | 0.01 | -0.0374 | -0.0593 | -0.0645 | -0.0412 | 0.0214 | 0.0874 | -0.0221 | -0.057 | -0.0293 | -0.0072 | 0.05 | 0.0093 | -0.0731
